Values joined by “and” are separate entries in the source; they are usually repeats but may differ in a detail not shown here. Identical values can stand only once. Like-named read-outs stand apart in the source and are kept apart here.
What was measured:
HPPD SEQ ID NO:24 = HPPD SEQ ID NO:24 (Avena sativa, UniProt A0ACD5V6K6, DEL109-109/L359M); assay: biochemical; type: binding
Description: (§1) On rates (governed by an association rate constant, kon) for the formation of the enzyme: inhibitor complexes, EI and off rates (governed by a dissociation rate constant, koff) were determined by methods known in the art and essentially as described in Hawkes et al. (2001) Proc. Bright. Crop. Prot. Conf. Weeds, 2:563-568 and in PCT Patent App. Pub. No. WO 02/46387).
(§2) For example, on rates were measured by, at zero time, adding ˜60 pmoles HPPD to 50 mM BisTrisPropane buffer at pH7.0 and at 25° C. containing 25 mM Na ascorbate, 4 μg/ml bovine catalase (Sigma, St. Louis, Mo.) and an excess (˜300 pmoles) of ^14C inhibitor in a total assay volume of 425 μl and, at various time points (0-180 s), quenching the radiolabel binding reaction by addition and rapid mixing of 100 μl ‘cold’ 1 mM structure A. Protein samples quenched at different times were then exchanged into 50 mM BisTrisPropane buffer at pH 7.0 containing 0.1M KCl by rapid chromatography down a NAP5 G25 Sephadex column (GE Healthcare Ltd, Buckinghamshire UK) and the amount of ^14C bound to protein fractions quantified in Optiphase scintillant using a Tri-Carb 2900TR scintillation counter (Perkin Elmer, Wellesley, Mass.). The data were fit according to the scheme below in order to derive the value of the apparent second order rate constant, k2, governing the association rate of enzyme and radiolabelled inhibitor. A range of enzyme and inhibitor concentrations were used. […] Further example methods are described in PCT Patent App. Pub. No. WO 02/46387.
(§3) Off rates (k1 in the scheme below) were derived from exchange rate studies where either the test inhibitor, I, or its exchange partner, J were radiolabelled and the data fit according to the scheme below. As noted in Hawkes et al. (2001) Proc. Bright. Crop. Prot. Conf.
(§4) After 30 minutes the exchange reaction was initiated with addition of 100 μl 1 mM ‘cold’ structure A with thorough mixing, and, immediately, 150 μl were withdrawn and loaded onto a NAP5 column, the protein exchanged into 50 mM BisTrisPropane buffer at pH 7.0 containing 0.1M KCl by rapid (<2 min) chromatography down a NAP5 G25 Sephadex column (GE Healthcare Ltd, Buckinghamshire UK) and the amount of ^14C bound to protein measured by Optiphase scintillant using a Tri-Carb 2900TR scintillation counter (Perkin Elmer, Wellesley, Mass.). Further aliquots were removed and measured in the same way at various times over minutes or hours as required in order to determine the exchange kinetics.
(§5) After 30 minutes the reaction vessel was transferred to ice. After a further 10 minutes at ice temperature the exchange reaction was initiated by addition of 100 μl 1 mM Structure A, with thorough mixing, and 150 μl was withdrawn and loaded onto a NAP5 column in a cold room at ˜5-8° C. in order to quantify the amount of radiolabel remaining bound to the protein at various time from the start of exchange at ice temperature.
(§6) Off rates (k1) of HPPD inhibitors that are not available radiolabelled or that present other measurement problems (for example high levels of background non-specific protein-binding which can be measured as radiolabel binding that persists in the presence of high concentrations of ‘cold’ inhibitor) may be measured indirectly. […] Exemplary methods are also described in PCT Patent App. Pub. No. WO 02/46387.

[1] = test system: soybean event S3 (vector 17147) expressing SEQ ID NO:24; assay: herbicide spray test on soybean events; type: in vivo; settings: event S3/SEQ#24, V2 growth stage, 14 DAT, average of n=7
Source text: (§7) Each data point represents the average damage score from n=7 replicates.
(§8) These events were used to compare the performance of five 17147 events. Four of these, SF, S8, S7 and S3 had not been preselected for tolerance level (other than to confirm resistance, non-chimerical nature and the presence of the gene) while the remaining event, T0, had been preselected as the most resistant out of five 17147 events in a preliminary field test.
(§9) Plants were in 4×4×4 inch plastic pots and grown under a 15/9 hour light regime (daylight supplemented by artificial light in greenhouses) at a minimum night-time temperature of 18° C. and maximum daytime temperature of 27° C. Soil was regular VBRC mix (1:1 mixture of Vero field soil and Fafard Mix II) where Vero field soil is 98% sand and 2% clay. […] Spray volume was 150 L/ha and the damage scores reflect assessments at 14 DAT.

[2] = test system: soybean event T0 (vector 17147) expressing SEQ ID NO:24; assay: herbicide spray test on soybean events; type: in vivo; settings: event T0/SEQ#24, V2 growth stage, 14 DAT, average of n=7
Source text: as §7, §8, §9

[3] = test system: soybean event SF (vector 17147) expressing SEQ ID NO:24; assay: herbicide spray test on soybean events; type: in vivo; settings: event SF/SEQ#24, V2 growth stage, 14 DAT, average of n=7
Source text: as §7, §8, §9

[4] = test system: soybean event S8 (vector 17147) expressing SEQ ID NO:24; assay: herbicide spray test on soybean events; type: in vivo; settings: event S8/SEQ#24, V2 growth stage, 14 DAT, average of n=7
Source text: as §7, §8, §9

[5] = test system: soybean event 2 (vector 15764) expressing SEQ ID NO:14; assay: herbicide spray test on soybean events; type: in vivo; settings: event 2/SEQ#14, V2 growth stage, 14 DAT, average of n=7
Source text: as §7, §8, §9

[6] = test system: soybean event 1 (vector 15764) expressing SEQ ID NO:14; assay: herbicide spray test on soybean events; type: in vivo; settings: event 1/SEQ#14, V2 growth stage, 14 DAT, average of n=7
Source text: as §7, §8, §9

[7] = test system: soybean event S7 (vector 17147) expressing SEQ ID NO:24; assay: herbicide spray test on soybean events; type: in vivo; settings: event S7/SEQ#24, V2 growth stage, 14 DAT, average of n=7
Source text: as §7, §8, §9

Jack w/t = assay: herbicide spray test on soybean; type: in vivo; settings: V2 growth stage, 14 DAT, average of n=7
Description: as §7, §9

[8] = test system: tobacco plants expressing HPPD SEQ ID NO:14; assay: herbicide spray test on transgenic tobacco; type: in vivo; settings: 13 DAT
[9] = test system: tobacco plants expressing HPPD SEQ ID NO:24; assay: herbicide spray test on transgenic tobacco; type: in vivo; settings: 13 DAT
HPPD SEQ ID NO:26 = assay: biochemical; type: binding, Avena sativa; settings: off rate, FIGS. 4A-4C
Description: as §1
For example, on rates were measured by, at zero time, adding ˜60 pmoles HPPD to 50 mM BisTrisPropane buffer at pH7.0 and at 25° C. containing 25 mM Na ascorbate, 4 μg/ml bovine catalase (Sigma, St. Louis, Mo.) and an excess (˜300 pmoles) of ^14C inhibitor in a total assay volume of 425 μl and, at various time points (0-180 s), quenching the radiolabel binding reaction by addition and rapid mixing of 100 μl ‘cold’ 1 mM structure A. Protein samples quenched at different times were then exchanged into 50 mM BisTrisPropane buffer at pH 7.0 containing 0.1M KCl by rapid chromatography down a NAP5 G25 Sephadex column (GE Healthcare Ltd, Buckinghamshire UK) and the amount of ^14C bound to protein fractions quantified in Optiphase scintillant using a Tri-Carb 2900TR scintillation counter (Perkin Elmer, Wellesley, Mass.). The data were fit according to the scheme below in order to derive the value of the apparent second order rate constant, k2, governing the association rate of enzyme and radiolabelled inhibitor. […]

[10] = test system: control SEQ ID NO:14 HPPD; assay: time course of inhibition of enzyme activity, control enzyme; type: biochemical, Avena sativa; settings: artifact of the method due to fast off rate during the 150 s assay
[11] = test system: G408A mutant of HPPD SEQ ID NO:14; assay: time course of inhibition of enzyme activity; type: biochemical, Avena sativa
HPPD SEQ ID NO:14 = HPPD SEQ ID NO:14 (Avena sativa, UniProt A0ACD5V6K6, DEL109-109); assay: biochemical; type: binding
Description: as §1, §2, §3, §4, §5, §6

[12] = test system: E. coli cells expressing mutant G408A; settings: 25 ppm sulcotrione
Description: (§10) Cells were grown from a 10% starting inoculum into 0.5 ml of L-broth containing 50 μg of kanamycin ml^−1 in […] for 48-96 h at 15° C. Typically pyomelanin colour in the medium was read (at 430 nm) after ˜72 h.

[13] = test system: E. coli BL21 cells expressing HPPD SEQ ID NO:24; type: cell-based; settings: 20 ppm sulcotrione (data not shown)
Description: as §10

[14] = 300 g/ha, smaller-sized population
[15] = 500 g/ha, larger-sized population

Chain of HPPD SEQ ID NO:14 (A0ACD5V6K6 entry or part of it DEL109-109): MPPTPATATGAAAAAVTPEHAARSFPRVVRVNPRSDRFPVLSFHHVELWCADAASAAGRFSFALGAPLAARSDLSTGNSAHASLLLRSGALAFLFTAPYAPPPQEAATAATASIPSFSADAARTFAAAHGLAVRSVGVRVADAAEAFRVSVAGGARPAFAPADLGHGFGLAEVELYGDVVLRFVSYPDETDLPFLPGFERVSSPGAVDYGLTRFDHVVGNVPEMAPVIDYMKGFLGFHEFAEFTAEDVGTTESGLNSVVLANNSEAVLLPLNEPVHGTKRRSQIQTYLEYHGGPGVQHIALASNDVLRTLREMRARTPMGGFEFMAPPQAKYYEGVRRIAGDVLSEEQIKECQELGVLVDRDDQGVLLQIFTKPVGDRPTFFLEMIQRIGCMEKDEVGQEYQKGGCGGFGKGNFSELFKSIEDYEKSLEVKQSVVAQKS
Chain of HPPD SEQ ID NO:24 (A0ACD5V6K6 entry or part of it DEL109-109/L359M): as the sequence (A0ACD5V6K6 entry or part of it DEL109-109) above, with L358M counted along it

CS(=O)(=O)c1cc(C(F)(F)F)ccc1C(=O)c1cnoc1C1CC1 [IFT, isoxaflutole]
SEQ ID NO:24 superior to SEQ ID NO:14 (in vitro, in particular off rate data) (HPPD SEQ ID NO:24): 2.3 fold | % dam. ([1]; IFT 420 g/ha): 30% | % dam. ([2]; IFT 420 g/ha): 19.3% | % dam. ([3]; IFT 420 g/ha): 40% | % dam. ([4]; IFT 420 g/ha): 31.3% | % dam. ([5]; IFT 420 g/ha): 42.5% | % dam. ([6]; IFT 420 g/ha): 26.4% | % dam. ([7]; IFT 420 g/ha): 20.7% | % dam. (Jack w/t; IFT 420 g/ha): 96.1%

CS(=O)(=O)c1ccc(C(=O)C2C(=O)CCCC2=O)c([N+](=O)[O-])c1 [Structure B, mesotrione]
% dam. ([1]; B 420 g/ha): 15.3% | % dam. ([1]; B 840 g/ha): 15.3% | % dam. ([2]; B 420 g/ha): 8.3% | % dam. ([2]; B 840 g/ha): 5.3% | % dam. ([3]; B 420 g/ha): 15.7% | % dam. ([3]; B 840 g/ha): 25% | % dam. ([4]; B 420 g/ha): 18.6% | % dam. ([4]; B 840 g/ha): 19.3% | % dam. ([5]; B 420 g/ha): 20.7% | % dam. ([5]; B 840 g/ha): 22.1% | % dam. ([6]; B 420 g/ha): 11.4% | % dam. ([6]; B 840 g/ha): 9.3% | % dam. ([7]; B 420 g/ha): 10.6% | % dam. ([7]; B 840 g/ha): 6.9% | plants exhibiting visible herbicide damage (number of plants) [8, 14]: 4 of 26 | plants exhibiting damage [8, 15]: 27% | plants exhibiting visible herbicide damage (number of plants) [9, 14]: 2 of 28 | plants exhibiting symptoms of herbicide damage [9, 15]: 10% | plants exhibiting symptoms of herbicide damage (number of plants) [9, 15]: 4 of 38 | dissociation from HPPD SEQ ID NO:26 compared with HPPD SEQ ID NO:24 (HPPD SEQ ID NO:26): about twice as fast | % dam. (Jack w/t; B 420 g/ha): 82.9% | % dam. (Jack w/t; B 840 g/ha): 83.6% | residual activity [10]: ~8% | residual activity ([11]; 0.6 μM B, enzyme about 75 nM, incubation up to 260 s, inhibition levelled off): about 35% | radiochemically determined off rate compared with control SEQ ID NO:14 HPPD ([11]; ice temperature): indistinguishable | extent of inhibition compared with the control enzyme ([11]; inhibitor at 0.15 or 0.6 μM): to a lesser extent

CS(=O)(=O)c1ccc(C(=O)C2C(=O)CCCC2=O)c(Cl)c1COCC(F)(F)F [E, tembotrione]
SEQ ID NO:24 superior to SEQ ID NO:14 (in vitro, in particular off rate data) (HPPD SEQ ID NO:24; relative to SEQ ID NO:14): neutral | Kd (HPPD SEQ ID NO:14): 0.321 nM | Off rate k1 (HPPD SEQ ID NO:14; 25° C., indirect radiochemical method, average and individual experiments): 5.5e-05 s⁻¹ and 2.85e-05 s⁻¹ | Kd/Km ratio (HPPD SEQ ID NO:14; HPPD SEQ ID NO:14): 0.000059 | koff (HPPD SEQ ID NO:14; read-out: Off rate k1, 25° C., indirect radiochemical method, average and individual experiments): 4.17e-05 s⁻¹ | kon (HPPD SEQ ID NO:14; read-out: On rate k2): 130000 M⁻¹ s⁻¹ | % dam. ([1]; E 368 g/ha): 51.4% | % dam. ([2]; E 368 g/ha): 39.3% | % dam. ([3]; E 368 g/ha): 97.1% | % dam. ([4]; E 368 g/ha): 80% | % dam. ([5]; E 368 g/ha): 52.1% | % dam. ([6]; E 368 g/ha): 36.4% | % dam. ([7]; E 368 g/ha): 41.4% | % dam. (Jack w/t; E 368 g/ha): 84.3%

CS(=O)(=O)c1ccc(C(=O)C2C(=O)CCCC2=O)c(Cl)c1 [sulc, sulcotrione]
resistance in pyomelanin assay [12]: resistance relative to HPPD SEQ ID NO:14 | tolerance in pyomelanin assay [13]: enhanced tolerance

Source: patent US9175305B2, “Mutant hydroxyphenylpyruvate dioxygenase polypeptides and methods of use” (Syngenta Participations AG, priority 2009, dated 2015)
